The record followed here is article PMC4627230, “Identification of TAX2 peptide as a new unpredicted anti-cancer agent” (Oncotarget, 2015).

Entries after “also recorded” stand apart in the source; their conditions may differ.

One series concerns C57BL/6 mice. Kind of series: Tolerability in melanoma-bearing mice (μCT of healthy organs, dissection). It is filed as in vivo, mouse. The conditions noted are these: 10 mg/kg i.p. days 3, 5, 7, dissections, data not shown. The procedure:
(§1) For the subcutaneous melanoma tumor model, suspensions of B16F1 cells (2.5 × 10^5 cells in 100 μL RPMI-1640 medium) were subcutaneously injected into the left flank of different randomized series of syngeneic C57BL/6 mice (n = 8–10 per group), as previously described. Intraperitoneal administrations of peptide (10 mg/kg mouse weight) or controls (physiological serum 0.9% (w/v) NaCl or a scrambled peptide) were performed at days 3, 5 and 7. In human pancreatic carcinoma xenograft experiments, 3 × 10^6 MIA PaCa-2 cells/mouse were implanted subcutaneously into the left flank of BALB/C athymic nude mice, then TAX2 intraperitoneal treatments (10 mg/kg mouse weight) were performed 3 times a week during 4 weeks starting at day 10 after tumor cells inoculation. Tumor volume was determined according to v = 0.5 A × B^2, where A denotes the largest dimension of the tumor and B represents the smallest dimension. […]
Animals were anesthetized by isoflurane (Forene, Abbott France, Rungis, France) inhalation (3% for induction and 1–1.5% for maintenance) and then after placed in a carbon fibers bed. […] Analysis of reconstructed images and quantification of the vascular network were performed using Amira 5.4.3 software.

A further series deals with TSP-1 binding to CD36. Kind of series: Co-immunoprecipitation TSP-1:CD36 in HUVECs. It is filed as cell-based, human. The conditions noted are these: 100 μM, 24 h. The procedure: Figure 3 Anti-angiogenic properties of TAX2 are mediated by TSP-1 binding to CD36 A. Expression of CD36 in HUVECs was assessed by immunoblotting (left panel) and immunofluorescence staining (right panel, red). Nuclei were counterstained with DAPI (blue). B. HUVECs were incubated with 100 μM cyclic TAX2 or in control conditions for 24 h. Then, CD36-containing complexes were co-immunoprecipitated from whole cell extracts (non-specific IgGs were used as a negative control for immunoprecipitation). Immunocomplexes were submitted to SDS-PAGE and immunoblotted (IB) by using specific antibodies for TSP-1 and CD36. The presence of TSP-1 in immunocomplexes was quantified by densitometric analysis relative to immunoprecipitated CD36. C. VEGFR2 phosphorylation induced by VEGF in the presence of TAX2. After overnight serum starvation, HUVECs were pre-treated with 100 μM TAX2 or control for 12 h, then incubated with 30 ng/mL VEGF for 5 min. […] Data are expressed as the mean ± SE (n = 3; *p < 0.05, ANOVA). […] Quantification of total tube-like network length was realized using ImageJ software E. Branching points F. and nodal structures G. were numbered using the S.CORE web-based system. Data are expressed as the mean ± SE (n = 3; *p < 0.05, ANOVA). […]

The next series has as its system BALB/C nu/nu mice. Kind of series: Tolerability in xenograft-bearing mice. It is filed as in vivo, mouse. The procedure:
as §1, with “dimension. At days indicated, mice were sacrificed and tumors were surgically extracted and fixed in 4% paraformaldehyde for further morphologic studies and for magnetic resonance imaging, or frozen for immunohistochemistry. Mice were also weighed every 2–3 days and daily checked for any modification in their behavior.” for “dimension.”

In series [1] the test system is MIA PaCa-2 xenograft in BALB/C nu/nu mice. Kind of series: MIA PaCa-2 human pancreatic carcinoma xenograft growth. It is filed as in vivo, human tumor xenograft in mouse. The procedure:
For the subcutaneous melanoma tumor model, suspensions of B16F1 cells (2.5 × 10^5 cells in 100 μL RPMI-1640 medium) were subcutaneously injected into the left flank of different randomized series of syngeneic C57BL/6 mice (n = 8–10 per group), as previously described. Intraperitoneal administrations of peptide (10 mg/kg mouse weight) or controls (physiological serum 0.9% (w/v) NaCl or a scrambled peptide) were performed at days 3, 5 and 7. In human pancreatic carcinoma xenograft experiments, 3 × 10^6 MIA PaCa-2 cells/mouse were implanted subcutaneously into the left flank of BALB/C athymic nude mice, then TAX2 intraperitoneal treatments (10 mg/kg mouse weight) were performed 3 times a week during 4 weeks starting at day 10 after tumor cells inoculation. Tumor volume was determined according to v = 0.5 A × B^2, where A denotes the largest dimension of the tumor and B represents the smallest dimension. At days indicated, mice were sacrificed and tumors were surgically extracted and fixed in 4% paraformaldehyde for further morphologic studies and for magnetic resonance imaging, or frozen for immunohistochemistry. Mice were also weighed every 2–3 days and daily checked for any modification in their behavior. Loss of 15% body weight was an indication for euthanasia as well as severe tumor necrosis, as it was sometimes associated with skin ulceration that would result in loss of body fluid and/or infection.
On the technique in general: Xenograft models place foreign cells or tissue in a host animal.

The test system of a further series is TSP-1. Kind of series: Microscale thermophoresis. It counts as binding. To be noted: data not shown. In general terms: MST reads how a fluorescent partner responds to local heating, with and without ligand.

Turning to “CEVSQLLKGDAC (disulfide) [TAX2, CD47-derived cyclic disulfide dodecapeptide …]”, the “thrombosis, hemorrhage or embolism in melanoma-bearing mice” value in the series with C57BL/6 mice is on record as “neither μCT imaging of healthy organs nor mice dissections highlighted any sign of thrombosis, hemorrhage or embolism; also recorded: no signs of thrombosis, hemorrhage or embolism were observed in healthy organs”. Moreover, the “increase of TSP-1 co-immunoprecipitated with CD36” value with TSP-1 binding to CD36 is reported as 3 fold. For the same sequence, in the series with BALB/C nu/nu mice (10 mg/kg i.p. 3 times a week for 4 weeks), the “clinical sign or weight loss” value is “mice did not exhibit any other clinical sign or weight loss”. In the series on BALB/C nu/nu mice (healthy organs, human pancreatic carcinoma model), the “thrombosis, hemorrhage or embolism in xenograft-bearing mice” value is recorded as “no signs of thrombosis, hemorrhage or embolism were observed in healthy organs”. The xenograft growth delay result in series [1] (10 mg/kg i.p. 3 times a week for 4 weeks from day 10) is given as “strong delay”. Besides, the “decrease of tumor volume at day 38” value in series [1] (10 mg/kg i.p. 3 times a week for 4 weeks from day 10, n = 9, p < 0.05) is on record as 2 fold. The “tumor volume at day 24, xenograft” value in series [1] (10 mg/kg i.p. 3 times a week from day 10, n = 15) is listed as “no differences in measured tumor volume were observed”. The “inhibition rate compared to 5 mg/kg bevacizumab twice weekly i.p.” value in series [1] (MIA PaCa-2 xenograft, bevacizumab data from ref [56]) is listed as “higher inhibition rates”. For the same sequence, in the series with TSP-1, the “binding to TSP-1 by microscale thermophoresis” value was “confirmed”.
